{
  "source": "patent US12054447B2",
  "about": "“PCNA inhibitors” (City of Hope, priority 2015, dated 2024)",
  "key": {"[1]": {"tested_on": "SK-N-DZ", "experiment": "Cell cycle analysis (PI, flow cytometry)", "assay_type": "cell-based, human", "conditions": "NB cells (SK-N-DZ), 500 nM", "procedure": "Cells were seeded at 1×10^5/ml in a 6-well plate. Once attached overnight, cells were treated with or without AOH1160 for 6 or 24 h. After being fixed in 60% ethanol and stained with propidium iodide (PI), cells were analyzed by flow cytometry to determine the cellular PI fluorescence intensity. The flow cytometry data were analyzed by the FlowJo program to model various cell populations."}, "[2]": {"tested_on": "MDA-MB-436 xenograft tumor", "experiment": "Xenograft of a triple-negative breast cancer cell line in Es1e/SCID mice", "assay_type": "in vivo", "conditions": "40 mg/kg once daily", "procedure": "(§1) FIGS. 10A-10B. Inhibition of the growth xenograft tumor derived from a triple-negative breast cancer cell line (MDA-MB-436). Mice bearing xenograft tumors were given vehicle only or 40 mg/kg of AOH1160 through the study. Shown are tumor volumes (FIG. 10A) and mouse body weights (FIG. 10B) in the course of the study. The Es1e/SCID mice used in this study were treated by vehicle only (diamond) or by 40 mg/kg AOH1160 (square) once daily.\nas §1, with “Inhibition” for “FIGS. 10A-10B. Inhibition”"}, "[3]": {"tested_on": "7SM0032", "experiment": "Cell growth, CellTitor-Glo assay, 72 h", "assay_type": "cell-based, human", "conditions": "Homo sapiens; 7SM0032 (non-malignant)", "procedure": "The human NB cell lines, SK-N-DZ, SK-N-BE(2)c, SK-N-AS, and LAN-5 obtained from the American Type Culture Collection (Rockville, MD), were cultured in DMEM with 10% fetal bovine serum (FBS), 100 units/ml penicillin, and 100 μg/ml streptomycin in the presence of 5% CO2 at 37° C. Human PBMCs from a healthy donor were purchased from Sanguine BioSciences (Valencia, CA) and grown in RPMI1640 with 10% FBS, 100 units/ml penicillin, 100 μg/ml streptomycin, and 10 ng/ml IL-2 in the presence of 5% CO2 at 37° C. Human embryonic progenitor cell line 7SM0032 was acquired from Millipore (Billerica, MA) and grown in the hEPM-1 Media Kit purchased from the same company. The plasmid pCBASce expresses the rare cutting I-SceI meganuclease. The U20S-derived cell lines, DR-GFP and EJ5-GFP, each contain a stably transfected reporter gene for DSB repair mediated by HR and end joining (EJ), respectively. These cell lines were cultured in DMEM medium with 10% FBS at 37° C. in the presence of 5% CO2.\n(§2) To measure the effect of the compounds on cell growth, cells were seeded at 3×10^4/ml into a 96-well plate. Once attached, cells were treated with various concentrations of AOH1160 for 72 h. Cell growth was measured by the CellTitor-Glo assay (Promega, Madison, WI) according to the manufacturer's instructions. To measure apoptosis, cells were seeded at 1×10^5/ml onto a chamber slide. Once attached, cells were treated with the 500 nM AOH1160 for 24 h. Cells were fixed and analyzed by a TUNEL assay using the TMR red in situ cell death detection kit (Roche Diagnostics, Indianapolis, IN)."}, "[4]": {"molecular_target": "T1, Recombinant human PCNA (Homo sapiens, UniProt P12004)", "T1 construct": "made in house", "T1 sequence (P12004 whole entry)": "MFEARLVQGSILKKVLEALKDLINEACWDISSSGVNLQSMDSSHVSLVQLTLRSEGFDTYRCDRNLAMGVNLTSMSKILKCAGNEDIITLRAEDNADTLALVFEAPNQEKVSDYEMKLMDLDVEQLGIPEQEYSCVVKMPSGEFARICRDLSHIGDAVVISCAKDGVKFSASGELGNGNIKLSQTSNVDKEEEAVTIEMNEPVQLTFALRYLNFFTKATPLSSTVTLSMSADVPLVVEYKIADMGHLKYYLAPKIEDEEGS", "experiment": "Saturation Transfer Difference (STD) NMR, competition with T3", "assay_type": "binding", "conditions": "1 μM PCNA, 30 μM T3, 3.2 μM AOH1160", "procedure": "Recombinant human PCNA was purified and exchanged to D2O-based phosphate buffered saline (PBS), pH 7.2. […] The reference spectra were acquired under the same condition without PCNA. 5 uM DSS was used as an internal reference to determine the reported ligand concentration in solution. All NMR experiments were carried out at 25° C. on 600 MHz Bruker Avance equipped with 5 mm triple resonance cryogenic probe. STD (Saturation Transfer Difference) NMR spectra were acquired with transients ranging from 2560 to 32000, spectral width 8012 Hz with 24 k data points. The recycle delay was 2.8 s. Selective saturation was composed of 50 gauss shaped pulses at a field strength of 86 Hz, and the duration of each pulse is 50 ms with a 500 μs delay between pulses. The spin lock filter used to suppress protein signal was optimized to 60 ms at field strength of 5 kHz. The frequency for protein saturation was optimized to be 0.9 ppm; the ligand signals were not disturbed with the employed selective saturation condition at this frequency. The reference spectrum was acquired with saturation irradiated at −30 ppm. To eliminate potential artifacts, the saturation and reference experiments were acquired in an interleaved manner, and the finished experiments were separated into two 1D data for analysis. The peak integration was carried out with Bruker Topspin software. […]"}, "[5]": {"tested_on": "SK-N-DZ", "experiment": "TUNEL assay / sub-G1 population (apoptosis)", "assay_type": "cell-based, human", "conditions": "NB cells (SK-N-DZ), 500 nM, 24 h", "procedure": "as §2"}},
  "data": [
    {"smiles": "O=C(CNC(=O)c1cccc2ccccc12)Nc1ccccc1Oc1ccccc1", "note": "[AOH1160]", "values": [
      {"measurement": "cell cycle effect", "setting": "[1]", "value": "causes cell cycle arrest"},
      {"measurement": "weight loss", "setting": "[2]", "value": "caused no significant weight loss"},
      {"measurement": "tumor growth (tumor volumes)", "setting": "[2]; vs vehicle", "value": "inhibited tumor growth"},
      {"measurement": "IC50", "setting": "[3]", "value": "> 20", "unit": "µM"},
      {"measurement": "competition with T3 for binding to PCNA", "setting": "[4]", "value": "competes with T3 for binding to PCNA"},
      {"measurement": "apoptosis", "setting": "[5]", "value": "apoptosis as indicated by the increase in the sub-G1 population (FIG. 2A) and TUNEL positivity"}
    ]}
  ]
}
